Results from ChEMBL document CHEMBL1201862, “PubChem BioAssay data set” (2004).
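Exposure lasted 48 hours, with cells grown in 96-well plates and compounds tested at five concentrations. Abbreviation: GI50, concentration required for 50% inhibition of growth.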 The source made the active and inactive calls. Cut-off read from the data, not from the text of the source: active = GI50 up to about 1.1 µM and inactive = higher.

Legend:
Test in all cases: growth of human tumour cells (NCI), 48 h
[1] = tested on: SF-295
[2] = tested on: OVCAR-4
[3] = tested on: HOP-62
[4] = tested on: SN12C
[5] = tested on: SF-539
[6] = tested on: SK-MEL-2
[7] = tested on: CCRF-CEM
[8] = tested on: TK-10
[9] = tested on: MOLT-4
[10] = tested on: A549
[11] = tested on: OVCAR-5
[12] = tested on: SW-620
[13] = tested on: COLO 205
[14] = tested on: U-251
[15] = tested on: RXF 393
[16] = tested on: HT-29
[17] = tested on: OVCAR-8
[18] = tested on: SR

Row | SMILES | GI50 [1] | GI50 [2] | GI50 [3] | GI50 [4] | GI50 [5] | GI50 [6] | GI50 [7] | GI50 [8] | GI50 [9] | GI50 [10] | GI50 [11] | GI50 [12] | GI50 [13] | GI50 [14] | GI50 [15] | GI50 [16] | GI50 [17] | GI50 [18]
1 | O=[N+]([O-])c1nccn1CC(O)c1ccc(F)cc1 (stereo not given) | > 100 µM (inactive) | > 100 µM (inactive) | > 100 µM (inactive) | > 100 µM (inactive) | > 100 µM (inactive) | > 100 µM (inactive) | > 100 µM (inactive) | > 100 µM (inactive) | > 100 µM (inactive) | > 100 µM (inactive) | > 100 µM (inactive) | > 100 µM (inactive) | > 100 µM (inactive) | > 100 µM (inactive) | > 100 µM (inactive) | > 100 µM (inactive) | > 100 µM (inactive) | 
2 | COc1ccc2c(c1)CCc1c(-c3n[nH]c4c3CCc3cc(OC)ccc3-4)n[nH]c1-2 | 17.2 µM (inactive) |  | 24 µM (inactive) | 57.4 µM (inactive) | 24.1 µM (inactive) | 43.9 µM (inactive) | 26.1 µM (inactive) | > 100 µM (inactive) | 58.6 µM (inactive) | 30.3 µM (inactive) | > 100 µM (inactive) | 17.9 µM (inactive) | 50.2 µM (inactive) | 49.1 µM (inactive) |  | 33.2 µM (inactive) | 37.8 µM (inactive) | 38.1 µM (inactive)
3 | O=C(Cc1ccccc1)NN1C(=O)C(Cl)C1c1cc(Br)cc(Br)c1O (stereo not given) | 12.3 µM (inactive) | 13 µM (inactive) | 14 µM (inactive) | 21.3 µM (inactive) |  | 15.1 µM (inactive) | 3.05 µM (inactive) | 17.8 µM (inactive) | 2.62 µM (inactive) | 15.9 µM (inactive) | 16.1 µM (inactive) | 7.14 µM (inactive) | 21.3 µM (inactive) | 13 µM (inactive) | 17.7 µM (inactive) | 21.6 µM (inactive) | 8.87 µM (inactive) | 0.794 µM (active)
4 | COc1cc2c(c(OC)c1OC)-c1ccc(SC)c(=O)cc1[C@@H](NC(=O)c1cccc([N+](=O)[O-])c1)CC2 | 0.0208 µM (active) | 13.1 µM (inactive) | 0.0257 µM (active) | 0.0282 µM (active) | 0.0171 µM (active) |  | 0.0301 µM (active) | 0.047 µM (active) | 0.0202 µM (active) |  | > 100 µM (inactive) | 0.0276 µM (active) | 0.0168 µM (active) | 0.0221 µM (active) |  | 0.0241 µM (active) | 0.024 µM (active) | 
5 | C/C(CC(=O)Nc1cccc(Cl)c1C)=N\NC(=O)c1ccncc1 | > 100 µM (inactive) |  | > 100 µM (inactive) |  | > 100 µM (inactive) | > 100 µM (inactive) | > 100 µM (inactive) | > 100 µM (inactive) | > 100 µM (inactive) | > 100 µM (inactive) | > 100 µM (inactive) | > 100 µM (inactive) | > 100 µM (inactive) | > 100 µM (inactive) | 29.1 µM (inactive) | > 100 µM (inactive) | > 100 µM (inactive) | 
6 | CSc1nc(-c2ccccc2)c2c(n1)-c1ccccc1CC2 | > 100 µM (inactive) | > 100 µM (inactive) | > 100 µM (inactive) | > 100 µM (inactive) |  | > 100 µM (inactive) | > 100 µM (inactive) | > 100 µM (inactive) | > 100 µM (inactive) | > 100 µM (inactive) | > 100 µM (inactive) | > 100 µM (inactive) | > 100 µM (inactive) | > 100 µM (inactive) | 34.4 µM (inactive) | 52 µM (inactive) | > 100 µM (inactive) | > 100 µM (inactive)
7 | CC1SC2=NC3=C(c4ccccc4C3=O)C(c3ccc(Br)cc3)N2C1=O (stereo not given) | 56.9 µM (inactive) | 41.4 µM (inactive) | > 100 µM (inactive) | 37.8 µM (inactive) |  | 48.1 µM (inactive) | 33.3 µM (inactive) | > 100 µM (inactive) | 31.6 µM (inactive) | 57.7 µM (inactive) | > 100 µM (inactive) | 51.9 µM (inactive) | 90.2 µM (inactive) | 35.5 µM (inactive) |  | > 100 µM (inactive) | 47.3 µM (inactive) | 
8 | OC1/C(=C/c2ccccc2)CNC/C1=C\c1ccccc1 (stereo not given) | > 100 µM (inactive) | > 100 µM (inactive) | > 100 µM (inactive) | > 100 µM (inactive) | > 100 µM (inactive) |  | 40.8 µM (inactive) | > 100 µM (inactive) | > 100 µM (inactive) | > 100 µM (inactive) | > 100 µM (inactive) | > 100 µM (inactive) | > 100 µM (inactive) | > 100 µM (inactive) | > 100 µM (inactive) | 89.7 µM (inactive) | > 100 µM (inactive) | > 100 µM (inactive)
9 | CCN(CC)CCNc1ccc2nnn3c4ccc(OC)cc4c(=O)c1c23 | 5.14 µM (inactive) | 6.46 µM (inactive) | 11.1 µM (inactive) | 5.96 µM (inactive) | 3.04 µM (inactive) | 14.2 µM (inactive) | 3.52 µM (inactive) | 9.25 µM (inactive) | 1.93 µM (inactive) | 5.56 µM (inactive) | 11 µM (inactive) | 3.58 µM (inactive) | 6.5 µM (inactive) | 10.4 µM (inactive) |  | 3.74 µM (inactive) | 4.31 µM (inactive) | 1.59 µM (inactive)
